Measured values published in ChEMBL document CHEMBL2040718, “Synthesis of friedelan triterpenoid analogs with DNA topoisomerase IIα inhibitory activity and their molecular docking studies” (Eur J Med Chem, 2012).
Calls of active or inactive are those of the source.

What was measured:
[1] = molecular target: DNA topoisomerase 2-alpha (Homo sapiens) (UniProt P11388); experiment: Complete inhibition of human topoisomerase 2alpha-mediated relaxation of supercoiled pBR322 plasmid DNA at 50 uM after 15 mins using ethidium bromide staining by agarose-gel electrophoresis
DNA topoisomerase 2-alpha (Homo sapiens), sequence (P11388 whole entry): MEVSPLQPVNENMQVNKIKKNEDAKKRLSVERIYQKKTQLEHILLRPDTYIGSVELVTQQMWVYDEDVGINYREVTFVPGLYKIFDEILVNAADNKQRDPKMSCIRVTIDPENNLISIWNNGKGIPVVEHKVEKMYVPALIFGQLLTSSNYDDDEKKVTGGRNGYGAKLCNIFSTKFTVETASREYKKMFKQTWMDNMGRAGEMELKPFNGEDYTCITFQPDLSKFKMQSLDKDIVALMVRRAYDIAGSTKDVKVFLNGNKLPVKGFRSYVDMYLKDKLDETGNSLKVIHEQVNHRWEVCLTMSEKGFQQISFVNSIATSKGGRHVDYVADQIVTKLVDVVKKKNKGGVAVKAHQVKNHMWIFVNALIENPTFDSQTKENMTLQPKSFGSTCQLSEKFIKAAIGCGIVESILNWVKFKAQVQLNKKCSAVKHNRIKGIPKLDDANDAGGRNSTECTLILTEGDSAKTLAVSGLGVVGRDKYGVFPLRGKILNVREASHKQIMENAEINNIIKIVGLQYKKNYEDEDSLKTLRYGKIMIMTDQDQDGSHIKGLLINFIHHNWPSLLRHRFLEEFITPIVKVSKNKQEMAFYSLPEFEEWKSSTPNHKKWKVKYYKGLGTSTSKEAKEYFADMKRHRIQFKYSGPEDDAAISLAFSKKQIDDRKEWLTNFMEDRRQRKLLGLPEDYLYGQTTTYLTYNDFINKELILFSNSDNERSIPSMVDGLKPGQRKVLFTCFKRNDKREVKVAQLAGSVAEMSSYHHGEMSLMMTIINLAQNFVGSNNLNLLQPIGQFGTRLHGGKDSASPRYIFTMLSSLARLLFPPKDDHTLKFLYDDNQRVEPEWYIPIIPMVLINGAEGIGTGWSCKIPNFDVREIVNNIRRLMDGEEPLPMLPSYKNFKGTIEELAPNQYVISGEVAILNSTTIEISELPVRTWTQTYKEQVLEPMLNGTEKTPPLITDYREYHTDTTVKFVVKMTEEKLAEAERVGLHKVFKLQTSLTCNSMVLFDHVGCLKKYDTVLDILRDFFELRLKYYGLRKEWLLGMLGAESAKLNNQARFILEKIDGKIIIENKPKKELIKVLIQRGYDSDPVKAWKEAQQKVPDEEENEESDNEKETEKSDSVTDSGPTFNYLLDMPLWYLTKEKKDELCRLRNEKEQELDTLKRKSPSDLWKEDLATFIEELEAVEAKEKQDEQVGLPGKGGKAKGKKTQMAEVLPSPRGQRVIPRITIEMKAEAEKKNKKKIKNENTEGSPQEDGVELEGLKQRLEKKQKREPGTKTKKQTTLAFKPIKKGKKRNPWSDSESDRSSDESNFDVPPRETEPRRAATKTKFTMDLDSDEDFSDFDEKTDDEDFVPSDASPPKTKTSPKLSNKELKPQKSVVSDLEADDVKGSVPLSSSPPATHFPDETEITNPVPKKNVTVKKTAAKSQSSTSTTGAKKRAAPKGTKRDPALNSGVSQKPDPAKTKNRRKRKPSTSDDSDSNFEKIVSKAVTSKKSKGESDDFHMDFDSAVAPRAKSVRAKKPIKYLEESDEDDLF

[2] = molecular target: DNA topoisomerase 2-alpha (Homo sapiens) (UniProt P11388); experiment: Complete inhibition of human topoisomerase 2alpha-mediated relaxation of supercoiled pBR322 plasmid DNA at 100 uM after 15 mins using ethidium bromide staining by agarose-gel electrophoresis
[3] = molecular target: DNA topoisomerase 2-alpha (Homo sapiens) (UniProt P11388); experiment: Inhibition of human topoisomerase 2alpha-mediated relaxation of supercoiled pBR322 plasmid DNA after 15 mins using ethidium bromide staining by agarose-gel electrophoresis
[4] = molecular target: DNA topoisomerase 2-alpha (Homo sapiens) (UniProt P11388); experiment: Partial inhibition of human topoisomerase 2alpha-mediated relaxation of supercoiled pBR322 plasmid DNA at 25 uM after 15 mins using ethidium bromide staining by agarose-gel electrophoresis

Measured: inhibition

CC(=O)[C@@]1(C)CC[C@H]2[C@@](C)(CC[C@@]3(C)[C@@H]4CC(C)(C)CC[C@]4(C)CC[C@]23C)[C@@H]1CC(=O)O
active: [1] | [2] | [3] Dose-dependent effect | [4]

C[C@@H](C(=O)O)[C@@]1(C)CC[C@H]2[C@@](C)(CC[C@@]3(C)[C@@H]4CC(C)(C)CC[C@]4(C)CC[C@]23C)[C@@H]1CC(=O)O
active: [1] | [2] | [3] Dose-dependent effect | [4]
